Laboratory results from patent US20120135995A1, “FUNGICIDAL DIPHENYL-SUBSTITUTED PYRIDAZINES” (E.I. Dupont de Nemours and Company, priority 2009, published 2012).

Assays:
Format in all cases: in vivo
[1] = tested on: Botrytis cinerea; experiment: Test A: tomato seedlings sprayed, next day inoculated with Botrytis cinerea (tomato Botrytis), visual disease rating; conditions: sprayed day before inoculation; for pest or weed control at 40 ppm: 40 ppm test suspension (*)
From the text: (§1) General protocol for preparing test suspensions for Tests A-F: the test compounds were first dissolved in acetone in an amount equal to 3% of the final volume and then suspended at the desired concentration (in ppm) in acetone and purified water (50/50 mix) containing 250 ppm of the surfactant Trem® 014 (polyhydric alcohol esters). The resulting test suspensions were then used in Tests A-F. Spraying a 200 ppm test suspension to the point of run-off on the test plants was the equivalent of a rate of 500 g/ha. An asterisk “*” next to the rating value indicates a 40 ppm test suspension.
The test suspension was sprayed to the point of run-off on tomato seedlings. The following day the seedlings were inoculated with a spore suspension of Botrytis cinerea (the causal agent of tomato Botrytis) and incubated in saturated atmosphere at 20° C. for 48 h, and then moved to a growth chamber at 24° C. for 3 days, after which time visual disease ratings were made.
(§2) Results for Tests A-F are given in Table A. In the Table, a rating of 100 indicates 100% disease control and a rating of 0 indicates no disease control (relative to the controls). A dash (-) indicates no test results. All results are for 200 ppm except where followed by “*”, which indicates 40 ppm.

[2] = tested on: Alternaria solani; experiment: Test B: tomato seedlings sprayed, next day inoculated with Alternaria solani (tomato early blight), visual disease rating; conditions: sprayed day before inoculation; for pest or weed control at 40 ppm: 40 ppm test suspension (*)
From the text: as §1
The test suspension was sprayed to the point of run-off on tomato seedlings. The following day the seedlings were inoculated with a spore suspension of Alternaria solani (the causal agent of tomato early blight) and incubated in a saturated atmosphere at 27° C. for 48 h, and then moved to a growth chamber at 20° C. for 5 days, after which time visual disease ratings were made.
as §2

[3] = tested on: Septoria nodorum; experiment: Test C: wheat seedlings sprayed, next day inoculated with Septoria nodorum (wheat glume blotch), visual disease rating; conditions: sprayed day before inoculation; for pest or weed control at 40 ppm: 40 ppm test suspension (*)
From the text: as §1
The test suspension was sprayed to the point of run-off on wheat seedlings. The following day the seedlings were inoculated with a spore suspension of Septoria nodorum (the causal agent of wheat glume blotch) and incubated in a saturated atmosphere at 24° C. for 48 h, and then moved to a growth chamber at 20° C. for 6 days, after which time visual disease ratings were made.
as §2

[4] = tested on: Septoria tritici; experiment: Test D: wheat seedlings sprayed, next day inoculated with Septoria tritici (wheat leaf blotch), visual disease rating; conditions: sprayed day before inoculation; for pest or weed control at 40 ppm: 40 ppm test suspension (*)
From the text: as §1
The test suspension was sprayed to the point of run-off on wheat seedlings. The following day the seedlings were inoculated with a spore suspension of Septoria tritici (the causal agent of wheat leaf blotch) and incubated in saturated atmosphere at 24° C. for 48 h, and then moved to a growth chamber at 20° C. for 19 days, after which time visual disease ratings were made.
as §2

[5] = tested on: Puccinia recondita f. sp. tritici; experiment: Test E1: wheat seedlings inoculated with Puccinia recondita f. sp. tritici (wheat leaf rust), sprayed afterwards, visual disease rating; conditions: sprayed after inoculation; for pest or weed control at 40 ppm: 40 ppm test suspension (*)
From the text: as §1
Wheat seedlings were inoculated with a spore suspension of Puccinia recondita f. sp. tritici (the causal agent of wheat leaf rust) and incubated in a saturated atmosphere at 20° C. for 24 h, and then moved to a growth chamber at 20° C. for 2 days. At the end of this time the test suspension was sprayed to the point of run-off on the wheat seedlings, and then the seedlings were moved to a growth chamber at 20° C. for 6 days, after which time visual disease ratings were made.
as §2

[6] = tested on: Puccinia recondita f. sp. tritici; experiment: Test E2: wheat seedlings sprayed, next day inoculated with Puccinia recondita f. sp. tritici (wheat leaf rust), visual disease rating; conditions: sprayed day before inoculation; for pest or weed control at 40 ppm: 40 ppm test suspension (*)
From the text: as §1
The test suspension was sprayed to the point of run-off on wheat seedlings. The following day the seedlings were inoculated with a spore suspension of Puccinia recondita f. sp. tritici (the causal agent of wheat leaf rust) and incubated in a saturated atmosphere at 20° C. for 24 h, and then moved to a growth chamber at 20° C. for 7 days, after which time visual disease ratings were made.
as §2

[7] = tested on: Erysiphe graminis; experiment: Test F: wheat seedlings sprayed, next day inoculated with Erysiphe graminis (wheat powdery mildew), visual disease rating; conditions: sprayed day before inoculation; for pest or weed control at 40 ppm: 40 ppm test suspension (*)
From the text: as §1
The test suspension was sprayed to the point of run-off on wheat seedlings. The following day the seedlings were inoculated with a spore dust of Erysiphe graminis, (the causal agent of wheat powdery mildew) and incubated in a growth chamber at 20° C. for 8 days, after which time visual disease ratings were made.
as §2

[8] = Puccinia recondita, 200 ppm test suspension

## COc1cc(OC)cc(-c2c(C)nnc(Cl)c2-c2c(F)cccc2F)c1 [Compound 24, 3-chloro-4-(2,6-difluorophenyl)-5-(3,5-dimethoxyphenyl)-6-methylpyridazine]
[1]; Botrytis cinerea
  pest or weed control at 40 ppm: 100%
[2]; Alternaria solani
  pest or weed control at 40 ppm: 26%
[3]; Parastagonospora nodorum
  pest or weed control at 40 ppm: 55%
[4]; Zymoseptoria tritici
  pest or weed control at 40 ppm: 100%
[5]; Puccinia recondita
  pest or weed control at 40 ppm: 26%
[6]; Puccinia recondita
  pest or weed control at 40 ppm: 100%
[7]; Blumeria graminis
  pest or weed control at 40 ppm: 98%

## COc1cc(OC)cc(-c2c(CCl)nnc(Cl)c2-c2c(F)cccc2F)c1 [Compound 26, 3-chloro-6-(chloromethyl)-4-(2,6-difluorophenyl)-5-(3,5-dimethoxyphenyl)-pyridazine]
[1]; Botrytis cinerea
  pest or weed control at 40 ppm: 99%
[2]; Alternaria solani
  pest or weed control at 40 ppm: 0%
[3]; Parastagonospora nodorum
  pest or weed control at 40 ppm: 0%
[4]; Zymoseptoria tritici
  pest or weed control at 40 ppm: 99%
[5]; Puccinia recondita
  pest or weed control at 40 ppm: 0%
[6]; Puccinia recondita
  pest or weed control at 40 ppm: 97%
[7]; Blumeria graminis
  pest or weed control at 40 ppm: 0%

## COc1cc(OC)cc(-c2c(CC#N)nnc(Cl)c2-c2c(F)cccc2F)c1 [Compound 27, 6-chloro-5-(2,6-difluorophenyl)-4-(3,5-dimethoxyphenyl)-3-pyridazine-acetonitrile]
[1]; Botrytis cinerea, 200 ppm test suspension
  pest or weed control at 200 ppm: 100%
[2]; Alternaria solani, 200 ppm test suspension
  pest or weed control at 200 ppm: 99%
[3]; Parastagonospora nodorum, 200 ppm test suspension
  pest or weed control at 200 ppm: 100%
[4]; Zymoseptoria tritici, 200 ppm test suspension
  pest or weed control at 200 ppm: 100%
[5]; [8]
  pest or weed control at 200 ppm: 0%
[6]; [8]
  pest or weed control at 200 ppm: 100%
[7]; Blumeria graminis, 200 ppm test suspension
  pest or weed control at 200 ppm: 98%

## COc1cc(OC)cc(-c2c(C)nnc(Cl)c2-c2ccc(F)cc2F)c1 [Compound 32]
[1]; 200 ppm test suspension
  Test A rating (disease control): 99%
[2]; 200 ppm test suspension
  Test B rating (disease control): 99%
[3]; 200 ppm test suspension
  Test C rating (disease control): 78%
[4]; 200 ppm test suspension
  Test D rating (disease control): 99%
[5]; 200 ppm test suspension
  Test E1 rating (disease control): 0%
[6]; 200 ppm test suspension
  Test E2 rating (disease control): 99%
[7]; 200 ppm test suspension
  Test F rating (disease control): 89%

## COc1cc(OC)cc(-c2c(CC#N)nnc(C)c2-c2c(F)cccc2F)c1 [Compound 35]
[1]; 200 ppm test suspension
  Test A rating (disease control): 98%
[2]; 200 ppm test suspension
  Test B rating (disease control): 99%
[3]; 200 ppm test suspension
  Test C rating (disease control): 99%
[4]; 200 ppm test suspension
  Test D rating (disease control): 100%
[5]; 200 ppm test suspension
  Test E1 rating (disease control): 46%
[6]; 200 ppm test suspension
  Test E2 rating (disease control): 100%
[7]; 200 ppm test suspension
  Test F rating (disease control): 99%

## COc1cc(OC)c(Cl)c(-c2c(C)nnc(F)c2-c2c(F)cccc2F)c1 [Compound 36]
[1]; 200 ppm test suspension
  Test A rating (disease control): 99%
[2]; 200 ppm test suspension
  Test B rating (disease control): 100%
[3]; 200 ppm test suspension
  Test C rating (disease control): 60%
[4]; 200 ppm test suspension
  Test D rating (disease control): 100%
[5]; 200 ppm test suspension
  Test E1 rating (disease control): 100%
[6]; 200 ppm test suspension
  Test E2 rating (disease control): 100%
[7]; 200 ppm test suspension
  Test F rating (disease control): 100%

## COc1cc(OC)cc(-c2c(C)nnc(Cl)c2-c2c(F)cccc2Cl)c1 [Compound 38]
[1]; 200 ppm test suspension
  Test A rating (disease control): 100%
[2]; 200 ppm test suspension
  Test B rating (disease control): 99%
[3]; 200 ppm test suspension
  Test C rating (disease control): 99%
[4]; 200 ppm test suspension
  Test D rating (disease control): 100%
[5]; 200 ppm test suspension
  Test E1 rating (disease control): 85%
[6]; 200 ppm test suspension
  Test E2 rating (disease control): 100%
[7]; 200 ppm test suspension
  Test F rating (disease control): 100%

## COc1cc(OC)cc(-c2c(C)nnc(C)c2-c2c(F)cccc2Cl)c1 [Compound 39]
[1]; 200 ppm test suspension
  Test A rating (disease control): 100%
[2]; 200 ppm test suspension
  Test B rating (disease control): 99%
[3]; 200 ppm test suspension
  Test C rating (disease control): 99%
[4]; 200 ppm test suspension
  Test D rating (disease control): 100%
[5]; 200 ppm test suspension
  Test E1 rating (disease control): 99%
[6]; 200 ppm test suspension
  Test E2 rating (disease control): 100%
[7]; 200 ppm test suspension
  Test F rating (disease control): 98%

## COc1cc(OC)cc(-c2c(C)nnc(C)c2-c2ccc(F)cc2F)c1 [Compound 40]
[1]; 200 ppm test suspension
  Test A rating (disease control): 100%
[2]; 200 ppm test suspension
  Test B rating (disease control): 99%
[3]; 200 ppm test suspension
  Test C rating (disease control): 97%
[4]; 200 ppm test suspension
  Test D rating (disease control): 100%
[5]; 200 ppm test suspension
  Test E1 rating (disease control): 0%
[6]; 200 ppm test suspension
  Test E2 rating (disease control): 100%
[7]; 200 ppm test suspension
  Test F rating (disease control): 95%

## COc1cc(OC)c(Cl)c(-c2c(C)nnc(Cl)c2-c2c(F)cccc2Cl)c1 [Compound 41]
[1]; 200 ppm test suspension
  Test A rating (disease control): 99%
[2]; 200 ppm test suspension
  Test B rating (disease control): 99%
[3]; 200 ppm test suspension
  Test C rating (disease control): 0%
[4]; 200 ppm test suspension
  Test D rating (disease control): 100%
[5]; 200 ppm test suspension
  Test E1 rating (disease control): 86%
[6]; 200 ppm test suspension
  Test E2 rating (disease control): 100%
[7]; 200 ppm test suspension
  Test F rating (disease control): 100%

## COc1cc(OC)c(Cl)c(-c2c(C)nnc(Cl)c2-c2c(F)cccc2Cl)c1Cl [Compound 42]
[1]; 200 ppm test suspension
  Test A rating (disease control): 0%
[2]; 200 ppm test suspension
  Test B rating (disease control): 0%
[3]; 200 ppm test suspension
  Test C rating (disease control): 0%
[4]; 200 ppm test suspension
  Test D rating (disease control): 60%
[5]; 200 ppm test suspension
  Test E1 rating (disease control): 0%
[6]; 200 ppm test suspension
  Test E2 rating (disease control): 89%
[7]; 200 ppm test suspension
  Test F rating (disease control): 42%

## COc1cc(OC)c(Cl)c(-c2c(C)nnc(C)c2-c2c(F)cccc2Cl)c1 [Compound 43]
[1]; 200 ppm test suspension
  Test A rating (disease control): 62%
[2]; 200 ppm test suspension
  Test B rating (disease control): 82%
[3]; 200 ppm test suspension
  Test C rating (disease control): 99%
[4]; 200 ppm test suspension
  Test D rating (disease control): 100%
[5]; 200 ppm test suspension
  Test E1 rating (disease control): 0%
[6]; 200 ppm test suspension
  Test E2 rating (disease control): 100%
[7]; 200 ppm test suspension
  Test F rating (disease control): 100%

## COc1cc(OC)c(Cl)c(-c2c(C)nnc(Cl)c2-c2ccc(F)cc2F)c1 [Compound 44]
[1]; 200 ppm test suspension
  Test A rating (disease control): 66%
[2]; 200 ppm test suspension
  Test B rating (disease control): 99%
[3]; 200 ppm test suspension
  Test C rating (disease control): 64%
[4]; 200 ppm test suspension
  Test D rating (disease control): 100%
[5]; 200 ppm test suspension
  Test E1 rating (disease control): 96%
[6]; 200 ppm test suspension
  Test E2 rating (disease control): 100%
[7]; 200 ppm test suspension
  Test F rating (disease control): 100%

## COc1cc(-c2c(C)nnc(Cl)c2-c2ccc(F)cc2F)cc(OC)c1Cl [Compound 45]
[1]; 200 ppm test suspension
  Test A rating (disease control): 100%
[2]; 200 ppm test suspension
  Test B rating (disease control): 100%
[3]; 200 ppm test suspension
  Test C rating (disease control): 97%
[4]; 200 ppm test suspension
  Test D rating (disease control): 100%
[5]; 200 ppm test suspension
  Test E1 rating (disease control): 100%
[6]; 200 ppm test suspension
  Test E2 rating (disease control): 100%
[7]; 200 ppm test suspension
  Test F rating (disease control): 100%

## COc1cc(OC)cc(-c2c(C)nnc(F)c2-c2ccc(F)cc2F)c1 [Compound 46]
[1]; 200 ppm test suspension
  Test A rating (disease control): 99%
[2]; 200 ppm test suspension
  Test B rating (disease control): 100%
[3]; 200 ppm test suspension
  Test C rating (disease control): 84%
[4]; 200 ppm test suspension
  Test D rating (disease control): 100%
[5]; 200 ppm test suspension
  Test E1 rating (disease control): 0%
[6]; 200 ppm test suspension
  Test E2 rating (disease control): 98%
[7]; 200 ppm test suspension
  Test F rating (disease control): 98%
